One series deals with rat heart. Briefly: Coronary blood flow (PCS2A): isolated perfused heart. To be noted: Rattus norvegicus.
Series [1] concerns Swiss-Webster male mice. The series can be described thus: Mouse Activity and Screen Test (MAST): screen test (ST). The class given is in vivo. To be noted: lowest dose at which an A rating (60-100%) is achieved, screen test; intraperitoneally. As for the experimental part:
Treatments are administered intraperitoneally one hour prior to testing. […] Compounds are dissolved or suspended in 0.2% Methocel. Control animals are injected with Methocel.
The compounds are identified in the Examples.

The test system of series [2] is Swiss-Webster male mice. Briefly: Mouse Activity and Screen Test (MAST): inhibition of spontaneous locomotion (LI). The class given is in vivo. Particulars: for Inhibition of mouse locomotor activity: one hour prior to testing, vs vehicle.

Where two headings read alike, the source gives them in different places.

As to `OC[C@H]1O[C@@H](n2cnc3c(NCC(c4ccccc4)c4ccccc4)ncnc32)[C@H](O)[C@@H]1O` [Example 1, N^6-(2,2-Diphenylethyl)adenosine], in the series with rat heart (read-out: CF), the activation at 0.001 µM was 7%, the activation at 0.003 µM amounted to 15%, the activation at 0.01 µM was found to be 32% and the activation at 0.1 µM stood at 43%. The activation at 1 µM with rat heart (read-out: CF) is 50%. In the series with rat heart (read-out: PCS2A CF ED50), the EC50 stood at 1 µM. Moreover, in the series on rat heart (read-out: PCS2A HR ED50), the EC50 amounted to 2 µM. Also, the “MAST ST LAD” value with Swiss-Webster male mice [1] is greater than 100 mg/kg. For the same compound, the “Inhibition of mouse locomotor activity” value in the series with Swiss-Webster male mice [2] (10 mg/kg intraperitoneally) came to 92%. In addition, in the series on Swiss-Webster male mice [2] (30 mg/kg intraperitoneally), the “Inhibition of mouse locomotor activity” value was found to be 93%. For the same compound, the “Inhibition of mouse locomotor activity” value in the series with Swiss-Webster male mice [2] (100 mg/kg intraperitoneally) is 94%. Further, in the series with Swiss-Webster male mice [2] (Mus musculus, ip, read-out: MAST LI LAD), the minimal effective dose was 3 mg/kg.

These data come from patent EP0139358B1, “N6-substituted diarylalkyl adenosines, processes for their production and pharmaceutical compositions comprising the same” (priority 1983, dated 1985).
